Measurements published in US8716437B2 (priority 2007, dated 2014).

Legend:
Kv1.3 [1] = target: T1, Kv1.3 (Homo sapiens, UniProt P22001); test: Phage panning on live cells (HEK, COS) expressing Kv1.3 channels; format: binding; design: expressed in transfected cells; host or cells: HEK (HEK293) and COS cells
Excerpt: In another example, receptors may be expressed in cells. For example, cells may be stably or transiently transfected with one or more receptors can be utilized as expressed in native tissues (Clackson and Lowman, Phage display. Oxford University Press, 2004; Barbas et al., Phage display. A laboratory manual. Cold Spring Harbor Laboratory Press, 2001; Sambrook et al., Molecular Cloning: A Laboratory Manual. Vols 1-3. Cold Spring Harbor Laboratory Press, 1989). In one example, HEK (mammalian human embryonic kidney) and COS cells expressing wild-type Kv1.3 or Kv1.3-PDZ domain chimera were employed, the latter target allowing a “double” panning (e.g., as a control or to enhance binding affinity) using phages expressing kaliotoxin-1 and/or PDZ-binder domain.
Panning may be performed by the binding of ligands to the receptors, followed by washes and ligand recovery. In one example, panning is performed according to standard methods of phage display (Clackson and Lowman, Phage display. Oxford University Press, 2004; Barbas et al., Phage display. A laboratory manual. Cold Spring Harbor Laboratory Press, 2001). Panning may be repeated until the desired enrichment is achieved. In addition, libraries can be pre-depleted on surfaces or cells that contain no receptors or on a receptor where the putative ligand receptor domain may be directly or indirectly altered. Additionally, any and all conditions of panning may be varied, altered or changed to achieve optimal results, such as the isolation of a specific ligand. Panning variations include, but are not limited to, the presence of competing ligand(s), presence of excess target(s), length and temperature of binding, pre-absorption of the ligand library on one or more different receptor(s) or cells or surfaces, composition of binding solution (e.g., ionic strength), stringency of washing, and recovery procedures. Phages recovered from panning may be processed for further rounds of panning, functional analysis, and/or sequencing/genotyping to deduce the resulting ligands' amino acid sequence or biological properties (Clackson and Lowman, Phage display. Oxford University Press, 2004; Barbas et al., Phage display. A laboratory manual. Cold Spring Harbor Laboratory Press, 2001).
5×10^11 phagemids were added to the cell cultures in “B.”
A library of KTX-like ligands, with a calculated diversity of greater than 11,000, was created de novo. The library comprised approximately 8% KTX-like ligands and 92% non-KTX-like ligands. The library of ligands was screened on Kv1.3 receptors expressed in HEK and COS cells.
Transfection efficiency was monitored with cotransfection of gene encoding for the green fluorescence protein (GFP) and observing the fluorescence after 1-2 days following transfection.
KTX and mokatoxin-1 are Kv1.3 specific scorpion toxins. […] Following incubation of the cells with the phages, cells were subjected to wash to remove the unbound/weakly bound phages. The remaining bound phages were eluted from the cells and transformed into XL1 E. coli, and plated onto LB plates with antibiotic selecting for the phagemids.

Kv1.3 [2] = target: T1, Kv1.3; test: Whole-cell patch-clamp of Kv1.3 currents in HEK293 cells, toxin-phage applied; format: cell-based; design: expressed in transfected cells; host or cells: HEK (HEK293) and COS cells; settings: 0.1 nM toxin-displaying phage
Procedure: […] […] Plasmids were transfected into cells with Lipofectamine 2000 (Invitrogen) according to the manufacturer's instructions. Experiments were performed at 24 hr. Whole-cell patch-clamp was performed using an Axopatch 200B amplifier and pCLAMP software (Molecular Devices, Union City, Calif.) at filter and sampling frequencies of 5 and 25 kHz respectively. Kv1.3 currents were evoked by 250 ms test pulses to 50 mV from −80 mV with a 5 second interpulse interval and studied in a bath solution comprising in mM: 1.3 CaCl2, 0.5 MgCl2, 0.4 MgSO4, 3.56 KCl, 0.44 KH2PO4, 139.7 NaCl, 0.34 Na2HPO4, 5.5 glucose, 10 HEPES adjusted to pH 7.4 with NaOH. […] Electrodes were coated with Sigmacote (Sigma) prior to use.
Electrophysiological recordings were performed with mokatoxin—0422 to confirm blocking of Kv1.3 channels. […] Plasmids were transfected into cells with Lipofectamine 2000 (Invitrogen) according to the manufacturer's instructions. Experiments were performed at 24 hrs. Whole-cell patch-clamp was performed using an Axopatch 200B amplifier and pCLAMP software (Molecular Devices, Union City, Calif.) at filter and sampling frequencies of 5 and 25 kHz respectively. […]

vector transfected cells = test: Phage panning on vector transfected cells (CONTROL); format: binding, human; settings: one round of panning; calculated input 5:95%
Procedure: Following incubation of the cells with the phages, cells were subjected to wash to remove the unbound/weakly bound phages. The remaining bound phages were eluted from the cells and transformed into XL1 E. coli, and plated onto LB plates with antibiotic selecting for the phagemids. The following day, 19-20 colonies of transformed XL1 were randomly selected and genotyped to establish the relative ratio (i.e., its departure from the calculated initial input of 5:95%) of the two different phage species, before and after the panning.

guinea pig ileum [3] = test: Intraluminal pressure measurement of peristaltic activity of guinea pig ileum; settings: MgTX 10 nM; mokatoxin-1 1-100 nM
guinea pig ileum [4] = test: Spontaneous motility (twitches) of guinea pig ileum strips; settings: reference toxins 10 nM; mokatoxin-1 1-100 nM
guinea pig ileum [5] = settings: J Pharmacol Exp Ther. 1999; cited from earlier work
[6] = one round of panning, calculated input 5:95%

T1 sequence (P22001 whole entry, the tested form may be a part): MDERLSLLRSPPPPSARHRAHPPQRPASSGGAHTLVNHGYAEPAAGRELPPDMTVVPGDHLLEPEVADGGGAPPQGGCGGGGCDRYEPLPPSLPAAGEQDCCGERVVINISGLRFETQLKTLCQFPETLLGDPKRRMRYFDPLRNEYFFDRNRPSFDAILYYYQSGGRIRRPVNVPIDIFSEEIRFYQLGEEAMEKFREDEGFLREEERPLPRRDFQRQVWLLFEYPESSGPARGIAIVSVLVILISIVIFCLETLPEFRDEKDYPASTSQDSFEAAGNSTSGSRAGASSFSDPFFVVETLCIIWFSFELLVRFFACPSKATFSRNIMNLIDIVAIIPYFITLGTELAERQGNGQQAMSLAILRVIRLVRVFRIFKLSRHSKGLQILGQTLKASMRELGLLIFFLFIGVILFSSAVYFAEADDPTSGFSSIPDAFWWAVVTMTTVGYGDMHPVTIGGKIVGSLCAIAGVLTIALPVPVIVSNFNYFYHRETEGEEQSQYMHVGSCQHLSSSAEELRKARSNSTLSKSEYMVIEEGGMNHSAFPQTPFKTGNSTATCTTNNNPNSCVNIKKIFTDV
Procedure for Human CD3+ T cells: 10^5 freshly isolated CD3′ T cells were activated using CD3/CD28 dynabeads (Dynal, USA) at a T cell:bead ratio of 1:1 in 200 ul of medium in 96 wells plate. Channel blockers diluted at different concentrations in PBS were added to the cells 1 h prior to stimulation (done in triplicate).
Human CD3′ T cells were stimulated with CD3/CD28 beads following incubation with different concentrations (from 0.1 to 100 nM) of MK and KTX. The activity of MK was compared to the activity of KTX that was previously described to block the channels (Beeton et al, JI 2001).

mokatoxin-2
share after the 2nd round of panning of the library on Kv1.3 cells (Kv1.3 [1]; HEK, KTX scaffold combinatorial library, n=18): 11%
# of genotype (%), Test (Kv1.3 [1]; [6]): 90%
# of genotype, Test (Kv1.3 [1]; [6]): 18
block of Kv1.3 channels expressed in mammalian cells (Kv1.3 [2]): blocks Kv1.3 channels
# of genotype (%), Control (vector transfected cells): 5%
# of genotype, Control (vector transfected cells): 1

CC[C@H](C)[C@H](N)C(=O)N[C@@H](CC(N)=O)C(=O)N[C@H](C(=O)N[C@@H](CCCCN)C(=O)N[C@H]1CSSC[C@@H]2NC(=O)[C@H](CCCCN)NC(=O)CNC(=O)[C@H](Cc3ccccc3)NC(=O)[C@H](CCCNC(=N)N)NC(=O)[C@H](CCSC)NC(=O)CNC(=O)[C@H](C)NC(=O)[C@H](CC(=O)O)NC(=O)[C@H](CCCCN)NC(=O)[C@@H]3CSSC[C@@H](C(=O)N[C@@H](Cc4ccc(O)cc4)C(=O)N[C@@H](CO)C(=O)O)NC(=O)[C@H](CCCNC(=N)N)NC(=O)[C@H](CSSC[C@H](NC(=O)[C@H](CCC(N)=O)NC(=O)[C@H](CCC(N)=O)NC(=O)[C@@H]4CCCN4C(=O)[C@H](CC(C)C)NC(=O)[C@H](CO)NC1=O)C(=O)N[C@@H]([C@@H](C)CC)C(=O)N[C@@H](CCCCN)C(=O)N1CCC[C@H]1C(=O)N3)NC(=O)[C@H](CCCCN)NC(=O)[C@H](CCCCN)NC(=O)[C@H](CC(N)=O)NC(=O)[C@H](CCSC)NC2=O)C(C)C [MK-1, mokatoxin-1]
cell viability (Human CD3+ T cells): no reduction of cell viability

Margatoxin
pressure threshold for initiation and frequency of peristaltic waves (guinea pig ileum [3]): induced a lowering of the pressure threshold
induction of twitches in ileum strips (guinea pig ileum [4]): induced twitches
ileum contractions (guinea pig ileum [5]): contractions
